According to BindingDB's records for doi:10.1016/S0960-894X(96)00609-9 (1997):

Target: Gastrin/cholecystokinin type B receptor (Cavia porcellus)
Test: Inhibition of [125I]Cholecystokinin-8 binding to Cholecystokinin type B receptor of guinea pig cerebral cortical membranes

Row | Compound | IC50
1 | Cc1cccc2c1N(CC(=O)N1CC3CCC(CC3)C1)C(=O)C(NC(=O)Nc1cccc(Cl)c1)N=C2c1ccccc1F (centres undefined) [1-[1-[2-(3-Aza-bicyclo[3.2.2]non-3-yl)-2-oxo-ethyl]-5-(2-fluoro-phenyl)-9-methyl-2-oxo-2,3-dihydro-1H-benzo[e][1,4]diazepin-3-yl]-3-(3-chloro-phenyl)-urea] | 2 nM
2 | Cc1cccc2c1N(CC(=O)N1CC3CCC(CC3)C1)C(=O)C(NC(=O)Nc1cccc(Br)c1)N=C2c1ccccc1F (centres undefined) [1-[1-[2-(3-Aza-bicyclo[3.2.2]non-3-yl)-2-oxo-ethyl]-5-(2-fluoro-phenyl)-9-methyl-2-oxo-2,3-dihydro-1H-benzo[e][1,4]diazepin-3-yl]-3-(3-bromo-phenyl)-urea] | 1.8 nM
3 | CC(=O)c1cccc(NC(=O)NC2N=C(c3ccccc3F)c3cccc(C)c3N(CC(=O)N3CC4CCC(CC4)C3)C2=O)c1 (centres undefined) [1-(3-Acetyl-phenyl)-3-[1-[2-(3-aza-bicyclo[3.2.2]non-3-yl)-2-oxo-ethyl]-5-(2-fluoro-phenyl)-9-methyl-2-oxo-2,3-dihydro-1H-benzo[e][1,4]diazepin-3-yl]-urea] | 0.84 nM
4 | Cc1cccc(NC(=O)NC2N=C(c3ccccc3F)c3ccccc3N(CC(=O)N3CC4CCC(CC4)C3)C2=O)c1 (centres undefined) [FR-175985] | 0.087 nM
5 | CSc1cccc(NC(=O)NC2N=C(c3ccccc3F)c3cccc(C)c3N(CC(=O)N3CC4CCC(CC4)C3)C2=O)c1 (centres undefined) [1-[1-[2-(3-Aza-bicyclo[3.2.2]non-3-yl)-2-oxo-ethyl]-5-(2-fluoro-phenyl)-9-methyl-2-oxo-2,3-dihydro-1H-benzo[e][1,4]diazepin-3-yl]-3-(3-methylsulfanyl-phenyl)-urea] | 0.37 nM
6 | Cc1cccc(NC(=O)NC2N=C(c3ccccc3F)c3cccc(C)c3N(CC(=O)N3CC4CCC(CC4)C3)C2=O)c1 (centres undefined) [1-[1-[2-(3-Aza-bicyclo[3.2.2]non-3-yl)-2-oxo-ethyl]-5-(2-fluoro-phenyl)-9-methyl-2-oxo-2,3-dihydro-1H-benzo[e][1,4]diazepin-3-yl]-3-m-tolyl-urea] | 0.47 nM
7 | COc1cccc(NC(=O)NC2N=C(c3ccccc3F)c3cccc(C)c3N(CC(=O)N3CC4CCC(CC4)C3)C2=O)c1 (centres undefined) [1-[1-[2-(3-Aza-bicyclo[3.2.2]non-3-yl)-2-oxo-ethyl]-5-(2-fluoro-phenyl)-9-methyl-2-oxo-2,3-dihydro-1H-benzo[e][1,4]diazepin-3-yl]-3-(3-methoxy-phenyl)-urea] | 1 nM
8 | Cc1cccc2c1N(CC(=O)N1CC3CCC(CC3)C1)C(=O)C(NC(=O)Nc1cccc(C(=O)O)c1)N=C2c1ccccc1F (centres undefined) [3-{3-[1-[2-(3-Aza-bicyclo[3.2.2]non-3-yl)-2-oxo-ethyl]-5-(2-fluoro-phenyl)-9-methyl-2-oxo-2,3-dihydro-1H-benzo[e][1,4]diazepin-3-yl]-ureido}-benzoic acid] | 0.96 nM

Target: not listed separately
Test: Inhibition of [125I]-Cholecystokinin-8 (125I-CCK-8) binding to Cholecystokinin type B receptor of guinea pig cerebral cortical membranes

Row | Compound | IC50
9 | Cc1cccc2c1N(CC(=O)N1CC3CCC(CC3)C1)C(=O)C(NC(=O)Nc1cccc(-c3nnn[nH]3)c1)N=C2c1ccccc1F (centres undefined) [1-[1-[2-(3-Aza-bicyclo[3.2.2]non-3-yl)-2-oxo-ethyl]-5-(2-fluoro-phenyl)-9-methyl-2-oxo-2,3-dihydro-1H-benzo[e][1,4]diazepin-3-yl]-3-[3-(1H-tetrazol-5-yl)-phenyl]-urea] | 6.4 nM
